Tested on: human ventricular muscle organ strips
Assay: Force generation of muscle strips from HVP-derived human muscle organ in response to electric stimulation
Conditions: muscle strips of 5-month graft, p<0.05 compared to control
Excerpt: One of the critical limitations for the utility of hPSCs for studies of human cardiac biology and disease is their lack of maturity and persistence of expression of fetal isoforms. […] Animals were sacrificed and the engrafted kidneys were removed for further analysis. The 5-month human graft was a hemisphere structure with the radius of 0.4 cm (diameter of 0.8 cm). […] In addition, muscle trips taken from our mature human muscle organ generated forces (0.36±0.04 mN) in response to electric stimulation and increased their force generation after treatment with a β-adrenergic agonist isoprenaline (0.51±0.02 mN, p<0.05 compared to control). Taken together, these studies indicate that the HVPs are capable of generating a fully functional, mature human ventricular muscle organ in vivo via a cell autonomous pathway, i.e., without the addition of other cells, genes, matrix proteins, or biomaterials.

CC(C)NCC(O)c1ccc(O)c(O)c1 (stereo not shown) [isoprenaline]
force generation after treatment with β-adrenergic agonist: 0.51±0.02 mN

From patent publication US10612094B2, “Genetic markers for engraftment of human cardiac ventricular progenitor cells” (Procella Therapeutics AB, priority 2016, dated 2020)
